Results on 14 compounds are retold here after patent publication US20250042886A1, “BIS(HETERO)ARYL THIOETHER OXADIAZINES AS FUNGICIDAL COMPOUNDS” (Bayer Aktiengesellschaft, priority 2021, published 2025).

The nature of data set [1]: Measurement of Log P values by HPLC on reversed phase columns (EEC directive 79/831 Annex V.A8). It is filed as physicochemical. The note with it: Table 1, compounds of formula (I); method [a]: LC-UV, acidic range, 0.1% formic acid in water and acetonitrile.
Data set [2] concerns Alternaria brassicae. The experiment in a line: In vivo preventive test on Alternaria brassicae (leaf spot on radish or cabbage). The note with it: 500 ppm of active ingredient, sprayed on young radish or cabbage plants 24 h before inoculation, evaluated 3 to 4 days after inoculation, read-out: efficacy. The protocol: B-1. […] The active ingredients were made soluble and homogenized in a mixture of Dimethyl sulfoxide/Acetone//Tween® 80 and then diluted in water to the desired concentration. The young plants of radish or cabbage were treated by spraying the active ingredient prepared as described above. Control plants were treated only with an aqueous solution of Acetone/Dimethyl sulfoxide/Tween® 80. After 24 hours, the plants were contaminated by spraying the leaves with an aqueous suspension of Alternaria brassicae spores.

Data set [3] concerns Botrytis cinerea. The experiment in a line: In vivo preventive test on Botrytis cinerea (grey mould). The settings on record: 500 ppm of active ingredient, sprayed on young gherkin or cabbage plants 24 h before inoculation, evaluated 4 to 5 days after inoculation, read-out: efficacy. On the procedure: The active ingredients were made soluble and homogenized in a mixture of Dimethyl sulfoxide/Acetone//Tween® 80 and then diluted in water to the desired concentration. The young plants of gherkin or cabbage were treated by spraying the active ingredient prepared as described above. Control plants were treated only with an aqueous solution of Acetone/Dimethyl sulfoxide/Tween® 80. After 24 hours, the plants were contaminated by spraying the leaves with an aqueous suspension of Botrytis cinerea spores.

The subject of data set [4] is Botrytis cinerea. The experiment in a line: Botrytis cinerea in vitro cell test. The class given is cell-based. The settings on record: 144 h, liquid culture, 6 days incubation, read-out: efficacy (inhibition of fungal growth); for inhibition at 20 ppm: 20 ppm of active ingredient; for inhibition at 50 µM: 50 μMol/l of active ingredient. On the procedure:
B-9. Botrytis cinerea In Vitro Cell Test • Solvent: DMSO • Culture medium: 1 g KH2PO4 (VWR), 1 g K2HPO4 (VWR), 0.5 g Urea (VWR), 3 g KNO3 (Prolabo), 10 g saccharose (VWR), 0.5 g MgSO4, 7H2O (Sigma), 0.07 g CaCl2, 2H2O (Prolabo), 0.2 mg MnSO4, H2O (Sigma), 0.6 mg CuSO4, 5H2O (Sigma), 7.9 mg ZnSO4, 7H2O (Sigma), 0.1 mg H3BO3 (Merck), 0.14 mg NaMoO4, 2H2O (Sigma), 2 mg thiamine (Sigma), 0.1 mg biotine (VWR), 4 mg FeSO4, 7H2O (Sigma), QSP 1 liter • Inoculum: spore suspension Fungicides were solubilized in DMSO and the solution used to prepare the required range of concentrations. […] A spore suspension of B. cinerea was prepared and diluted to the desired spore density. Fungicides were evaluated for their ability to inhibit spore germination and mycelium growth in liquid culture assay. The compounds were added in the desired concentration to the culture medium with spores. After 6 days incubation, fungi-toxicity of compounds was determined by spectrometric measurement of mycelium growth. Inhibition of fungal growth was determined by comparing the absorbance values in wells containing the fungicides with the absorbance in control wells without fungicides.

The subject of data set [5] is Colletotrichum lindemuthianum. In words: Colletotrichum lindemuthianum in vitro cell test. The settings on record: 144 h, liquid culture, 6 days incubation, read-out: efficacy (inhibition of fungal growth); for inhibition at 20 ppm: 20 ppm of active ingredient; for inhibition at 50 µM: 50 μMol/l of active ingredient. The class given is cell-based. On the procedure:
(§1) B-7. Colletotrichum lindemuthianum In Vitro Cell Test • Solvent: DMSO • Culture medium: 14.6 g anhydrous D-glucose (VWR), 7.1 g Mycological Peptone (Oxoid), 1.4 g granulated Yeast Extract (Merck), QSP 1 liter • Inoculum: spores suspension Fungicides were solubilized in DMSO and the solution used to prepare the required range of concentrations. […] A spore suspension of C. lindemuthianum was prepared and diluted to the desired spore density. Fungicides were evaluated for their ability to inhibit spores germination and mycelium growth in liquid culture assay. The compounds were added in the desired concentration to the culture medium with spores. After 6 days incubation, fungi-toxicity of compounds was determined by spectrometric measurement of mycelium growth. Inhibition of fungal growth was determined by comparing the absorbance values in wells containing the fungicides with the absorbance in control wells without fungicides.

For data set [6], the system named is Alternaria alternata. In words: Alternaria alternata in vitro cell test. The note with it: 120 h, liquid culture, 5 days incubation, read-out: efficacy (inhibition of fungal growth). The class given is cell-based. The protocol:
as §1, with “B-5. Alternaria alternata In” for “B-7. Colletotrichum lindemuthianum In”, “of A. alternata” for “of C. lindemuthianum”, “inhibit spore” for “inhibit spores”, “After 5” for “After 6”

Data set [7] has as its system Pyrenophora teres. The experiment in a line: Pyrenophora teres in vitro cell test. The class given is cell-based. The settings on record: 144 h, liquid culture, 6 days incubation, read-out: efficacy (inhibition of fungal growth); for inhibition at 50 µM: 50 μMol/l of active ingredient. The protocol: as §1, with “B-8. Pyrenophora teres In” for “B-7. Colletotrichum lindemuthianum In”, “Inoculum: spore” for “Inoculum: spores”, “of P. teres” for “of C. lindemuthianum”, “inhibit spore” for “inhibit spores”

Data set [8] deals with Pyricularia oryzae. In words: microbe, parasite or virus in culture. It is filed as cell-based. The settings on record: 120 h; for inhibition at 50 µM: read-out: efficacy (inhibition of fungal growth), 50 μMol/l of active ingredient, liquid culture, 5 days incubation.
Data set [9] deals with Fusarium culmorum. The experiment in a line: Fusarium culmorum in vitro cell test. The note with it: 120 h, 50 μMol/l of active ingredient, liquid culture, 5 days incubation, read-out: efficacy (inhibition of fungal growth). It is filed as cell-based. The protocol: B-10. Fusarium culmorum In Vitro Cell Test • Solvent: DMSO • Culture medium: 1 g KH2PO4 (VWR), 1 g K2HPO4 (VWR), 0.5 g Urea (VWR), 3 g KNO3 (Prolabo), 10 g saccharose (VWR), 0.5 g MgSO4, 7H2O (Sigma), 0.07 g CaCl2, 2H2O (Prolabo), 0.2 mg MnSO4, H2O (Sigma), 0.6 mg CuSO4, 5H2O (Sigma), 7.9 mg ZnSO4, 7H2O (Sigma), 0.1 mg H3BO3 (Merck), 0.14 mg NaMoO4, 2H2O (Sigma), 2 mg thiamine (Sigma), 0.1 mg biotine (VWR), 4 mg FeSO4, 7H2O (Sigma), QSP 1 liter • Inoculum: spores suspension
Fungicides were solubilized in DMSO and the solution used to prepare the required range of concentrations. The final concentration of DMSO used in the assay was ≤1%.
A spore suspension of F. culmorum was prepared and diluted to the desired spore density.
Fungicides were evaluated for their ability to inhibit spore germination and mycelium growth in liquid culture assay. The compounds were added in the desired concentration to the culture medium with spores. After 5 days incubation, fungi-toxicity of compounds was determined by spectrometric measurement of mycelium growth. Inhibition of fungal growth was determined by comparing the absorbance values in wells containing the fungicides with the absorbance in control wells without fungicides.

As for `COc1cccc(Sc2nnc3ccccc3c2C2=NOC[C@@H](Cc3ccc(C)cc3C)N2)c1` (racemic) [Compound I-006], the chromatographic logP (commonly a lipophilicity value derived from retention on a column) in data set [1] was determined as 3.84. In addition, the pest or weed control at 500 ppm in data set [2] and in [3] was 90 to 100% each time. The inhibition at 20 ppm in data set [4] and in data set [5] was 90 to 100% in each case.

Take `Cc1cccc(Sc2nnc(Cl)cc2C2=NOC[C@@H](Cc3ccc(Cl)cc3Cl)N2)c1` (racemic) [Compound I-014]: the chromatographic logP in [1] stood at 4.59. Also, the inhibition at 20 ppm in data set [6] (20 ppm of active ingredient) lay in the range of 70 to 79%; in data set [4] it was 90 to 100%.

Consider `Clc1cccc(Sc2nnc(Cl)cc2C2=NOC[C@@H](Cc3ccc(Cl)cc3Cl)N2)c1` (racemic) [Compound I-015], for which the chromatographic logP in data set [1] came to 4.73. The values for the pest or weed control at 500 ppm in [2] and in data set [3] were 80 to 89% and 90 to 100%, respectively. In addition, the inhibition at 20 ppm in data set [7] (20 ppm of active ingredient) was 90 to 100%; in data set [8] (read-out: efficacy (inhibition of fungal growth), 20 ppm of active ingredient, liquid culture, 5 days incubation), 90 to 100%; in [4] it was 90 to 100%; in data set [5] it was 90 to 100%.

The compound `Cc1cc([C@H]2CON=C(c3c(Sc4ccccn4)nnc(C)c3C)N2)c(C)s1` (racemic) [Compound I-036] returned a chromatographic logP in data set [1] of 2.32. Moreover, the inhibition at 50 µM in data set [7] fell in the range of 70 to 79%; in data set [9], 90 to 100%; in data set [5] it was 90 to 100%.

Take `COc1ccc(Sc2nnc(C)c(C)c2C2=NOC[C@@H](c3cc(C)sc3C)N2)cc1` (racemic) [Compound I-049]: the chromatographic logP in [1] was 3.11. The inhibition at 50 µM in [7] and in data set [6] (50 μMol/l of active ingredient) was 70 to 79% throughout.

`Cc1ccc([C@H]2CON=C(c3c(Sc4ccc(F)cc4)nnc4ccccc34)N2)s1` (racemic) [Compound I-060] displayed a chromatographic logP in [1] of 3.29. Also, the pest or weed control at 500 ppm in data set [2] lay within 70 to 79%; in data set [3], 90 to 100%. Moreover, the inhibition at 50 µM in [7] lay in the range of 70 to 79%; in data set [4], 90 to 100%; in data set [9], 70 to 79%.

`Cc1ccc([C@H]2CON=C(c3c(Sc4ccc(F)c(Cl)c4)nnc4ccccc34)N2)s1` (racemic) [Compound I-068] had a chromatographic logP in data set [1] of 3.74. For the same compound, the pest or weed control at 500 ppm in data set [2] was 80 to 89%; in data set [3], 90 to 100%. The inhibition at 50 µM in data set [7] fell in the range of 70 to 79%; in data set [4], 90 to 100%; in [5], 90 to 100%.

In the case of `Cc1ccc([C@H]2CON=C(c3c(Sc4ccc(C)c(C)c4)nnc4ccccc34)N2)s1` (racemic) [Compound I-080], the chromatographic logP in data set [1] is 3.76. In addition, the pest or weed control at 500 ppm in data set [3] is 90 to 100%. For the same compound, the results for the inhibition at 50 µM in data set [8], in [4] and in data set [9] were 80 to 89%, 90 to 100% and 90 to 100%, respectively.

The compound `Cc1cc([C@H]2CON=C(c3c(Sc4ccc(F)c(Cl)c4)nnc(C)c3C)N2)c(C)s1` (racemic) [Compound I-088] showed a chromatographic logP in [1] of 3.62. The pest or weed control at 500 ppm in [2] was 70 to 79%; in [3], 90 to 100%. Also, the inhibition at 50 µM in data set [4] and in data set [5] was 90 to 100% throughout.

Take `Cc1cccc(Sc2nnc(C)c(C)c2C2=NOC[C@H](c3cc(C)sc3C)N2)n1` (racemic) [Compound I-089]: the chromatographic logP in data set [1] was 2.56. Also, the pest or weed control at 500 ppm in data set [2] fell in the range of 70 to 79%; in data set [3], 80 to 89%. Besides, the inhibition at 50 µM in [4] was in the range of 70 to 79%.

`Cc1ccc([C@H]2CON=C(c3c(Sc4ccccc4)nnc(C)c3C)N2)s1` (racemic) [Compound I-117] registered a chromatographic logP in data set [1] of 2.69. Besides, the pest or weed control at 500 ppm in data set [3] lay in the range of 90 to 100%. Further, the inhibition at 50 µM lay in the range of 90 to 100% in data set [4] and 80 to 89% in data set [9].

As for `Cc1cc([C@@H]2CON=C(c3c(Sc4ccccc4C)nnc(C)c3C)N2)c(C)s1` (racemic) [Compound I-121], in [1], the chromatographic logP came to 3.29. Further, the pest or weed control at 500 ppm was 80 to 89% in data set [2] and 90 to 100% in data set [3]. Also, in data set [4], the inhibition at 50 µM is 90 to 100%.

Take `Cc1ccc([C@H]2CON=C(c3c(Sc4ccc(F)c(F)c4)nnc4ccccc34)N2)s1` (racemic) [Compound I-124]: the chromatographic logP in [1] is 3.44. For the same compound, the pest or weed control at 500 ppm in data set [2] lay within 80 to 89%; in data set [3], 90 to 100%. Also, the inhibition at 50 µM in data set [8] was 70 to 79%; in [4], 90 to 100%; in data set [9], 80 to 89%; in data set [5], 70 to 79%.

As for `Cc1ccc([C@H]2CON=C(c3c(Sc4cccc(OC(F)(F)F)c4)nnc4ccccc34)N2)s1` (racemic) [Compound I-133], the chromatographic logP in [1] was determined as 3.92. Also, the pest or weed control at 500 ppm in [3] lay within 90 to 100%. The inhibition at 50 µM in [8] was 70 to 79%; in data set [4] it was 90 to 100%; in data set [9], 70 to 79%; in data set [5] it was 90 to 100%.
